In article PMC6941357, “An in vitro toolbox to accelerate anti-malarial drug discovery and development” (Malaria Journal, 2020):
Several values for one entry are separate records, joined by “and”; a condition that tells them apart may be missing. Equal values may be shown once. Read-outs that look alike come from different tables or passages of the source. Marks after values point to notes of the source that are not given here.

How the values were obtained:
[1] = test system: 10% FCS in DMEM; assay: Binding in DMEM with 10% FCS via ultracentrifugation; format: in vitro ADME, calf
Protocol: (§1) Dulbecco’s Modified Eagle’s Medium (DMEM) containing GlutaMAX-I was purchased from Invitrogen (Thermo Fisher Scientific) and stored at 4 °C. Medium was prepared by adding heat inactivated foetal calf serum (FCS, final 10% v/v), penicillin (final 100 U/mL), streptomycin (final 100 µg/mL) D-glucose (final 4.0 mg/mL) and sodium pyruvate (final 0.1 mg/mL).
(§2) An ultracentrifugation method adapted from a previous publication was initially used to assess plasma protein binding and binding in the other media. […] Additional ultracentrifuge tubes containing spiked matrix were maintained at 37 °C, 5% or 10% CO2 or normal atmosphere conditions, with aliquots being taken within 0.5 h of the start and at the end of ultracentrifugation to serve as controls for the assessment of stability and to obtain a measure of the total concentration (Ctotal). Following ultracentrifugation, the pH was checked and an aliquot of protein-free supernate was taken from each ultracentrifuge tube for determination of the unbound concentration (Cunbound).
(§3) Total matrix and protein free samples were analysed using a matrix matching approach whereby each sample was mixed in a 1:1 ratio with the opposite blank medium (i.e. blank total matrix or blank protein free buffer). For example, plasma samples were mixed with blank pH 7.4 buffer whereas plasma supernatant samples were mixed with blank plasma. Each of the sample sets were then assayed against a common calibration curve prepared in a 1:1 mixture of total matrix and protein free pH 7.4 buffer. […] The standard deviation for fu was calculated using the propagation of errors approach as described previously. The potential for compound degradation was assessed by comparing the average value for Ctotal at the start and end of the experiment.

[2] = as above; format: in vitro ADME, calf; details: bovine, pH 7.4
Protocol: as §1, §2, §3

[3] = human, cited from earlier work
[4] = cited from earlier work; for Solubility FaSSGF (1 h) / Solubility FaSSIF-V2 (5–6 h) / Solubility FeSSIF-V2 (5–6 h): ref 77 (M5717), 78 (DSM421), 79 (DSM265)
[5] = parameters: method as in earlier work; details: octanol/pH 7.4 buffer; ref 77 (M5717), 78 (DSM421); cited from earlier work
[6] = molecular target: T1, CYP1A2 (Homo sapiens, UniProt P05177); parameters: from tissue; host or cells: human liver microsomes; details: human liver microsomes, cited from earlier work; for CYP1A2 % inhibition at max conc: nmi = no measurable inhibition
T1 sequence (P05177 1-516): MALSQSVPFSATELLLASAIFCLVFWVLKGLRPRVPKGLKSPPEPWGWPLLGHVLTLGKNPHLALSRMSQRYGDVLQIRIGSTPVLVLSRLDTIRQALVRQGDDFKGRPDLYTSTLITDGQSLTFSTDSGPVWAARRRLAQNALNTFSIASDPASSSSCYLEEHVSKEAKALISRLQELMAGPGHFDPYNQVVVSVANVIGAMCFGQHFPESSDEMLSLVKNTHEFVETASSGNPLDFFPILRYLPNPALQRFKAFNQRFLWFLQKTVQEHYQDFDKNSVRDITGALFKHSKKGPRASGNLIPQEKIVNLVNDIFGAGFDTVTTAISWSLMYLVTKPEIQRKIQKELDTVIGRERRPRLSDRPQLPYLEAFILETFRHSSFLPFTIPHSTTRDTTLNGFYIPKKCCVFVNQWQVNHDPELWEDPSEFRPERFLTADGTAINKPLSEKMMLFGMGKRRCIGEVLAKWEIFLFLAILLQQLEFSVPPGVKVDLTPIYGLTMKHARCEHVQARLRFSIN

[7] = molecular target: CYP2C9 (Homo sapiens, UniProt P11712); parameters: from tissue; host or cells: human liver microsomes; details: human liver microsomes, cited from earlier work
[8] = test system: human liver microsomes; details: human liver microsomes, cited from earlier work
[9] = molecular target: CYP3A4 (Homo sapiens, UniProt P08684); parameters: from tissue; host or cells: human liver microsomes; details: human liver microsomes, cited from earlier work
[10] = molecular target: CYP2C19 (Homo sapiens, UniProt P33261); parameters: from tissue; host or cells: human liver microsomes; details: human liver microsomes, cited from earlier work
[11] = molecular target: CYP2D6 (Homo sapiens, UniProt P10635); parameters: from tissue; host or cells: human liver microsomes; details: human liver microsomes, cited from earlier work
[12] = test system: human liver microsomes; details: ref 79 (DSM265), 78 (DSM421); cited from earlier work
[13] = molecular target: T2, Albumax medium (lipid rich bovine serum albumin) (Bos taurus, UniProt P02769); parameters: method as in PMID 26180101; details: cited from earlier work
T2 construct: purchased Gibco, Thermo Fisher Scientific

[14] = CYP3A4 (test), read-out: CYP3A4 (test) IC50
[15] = apparent oral volume of distribution

CYP2C19, sequence (P33261 whole entry): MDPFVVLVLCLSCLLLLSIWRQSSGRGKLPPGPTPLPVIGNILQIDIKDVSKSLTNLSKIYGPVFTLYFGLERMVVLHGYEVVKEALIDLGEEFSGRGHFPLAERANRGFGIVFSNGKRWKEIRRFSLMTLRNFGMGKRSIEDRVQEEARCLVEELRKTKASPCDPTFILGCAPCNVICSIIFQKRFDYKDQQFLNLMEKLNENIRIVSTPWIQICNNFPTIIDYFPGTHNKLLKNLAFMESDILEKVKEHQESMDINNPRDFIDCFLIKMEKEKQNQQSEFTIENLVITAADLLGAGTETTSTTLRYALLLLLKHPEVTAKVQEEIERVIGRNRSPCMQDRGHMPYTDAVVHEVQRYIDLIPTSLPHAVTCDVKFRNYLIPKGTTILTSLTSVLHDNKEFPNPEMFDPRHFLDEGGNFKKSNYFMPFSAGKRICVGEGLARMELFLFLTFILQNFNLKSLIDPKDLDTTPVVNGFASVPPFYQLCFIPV
CYP3A4, sequence (P08684 whole entry): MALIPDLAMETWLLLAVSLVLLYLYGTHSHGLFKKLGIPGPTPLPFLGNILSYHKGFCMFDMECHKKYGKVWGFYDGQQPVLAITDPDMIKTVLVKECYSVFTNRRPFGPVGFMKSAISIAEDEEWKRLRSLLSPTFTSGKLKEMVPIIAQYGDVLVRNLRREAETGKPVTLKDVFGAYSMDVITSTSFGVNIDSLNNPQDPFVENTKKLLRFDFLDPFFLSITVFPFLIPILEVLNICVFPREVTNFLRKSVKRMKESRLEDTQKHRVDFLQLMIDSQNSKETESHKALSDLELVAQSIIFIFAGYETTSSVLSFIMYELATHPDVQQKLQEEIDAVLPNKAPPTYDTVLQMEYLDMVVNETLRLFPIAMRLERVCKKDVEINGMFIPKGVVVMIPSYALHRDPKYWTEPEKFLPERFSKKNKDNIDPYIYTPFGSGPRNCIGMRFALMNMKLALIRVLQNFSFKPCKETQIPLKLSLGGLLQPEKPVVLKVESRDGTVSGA
CYP2D6, sequence (P10635 whole entry): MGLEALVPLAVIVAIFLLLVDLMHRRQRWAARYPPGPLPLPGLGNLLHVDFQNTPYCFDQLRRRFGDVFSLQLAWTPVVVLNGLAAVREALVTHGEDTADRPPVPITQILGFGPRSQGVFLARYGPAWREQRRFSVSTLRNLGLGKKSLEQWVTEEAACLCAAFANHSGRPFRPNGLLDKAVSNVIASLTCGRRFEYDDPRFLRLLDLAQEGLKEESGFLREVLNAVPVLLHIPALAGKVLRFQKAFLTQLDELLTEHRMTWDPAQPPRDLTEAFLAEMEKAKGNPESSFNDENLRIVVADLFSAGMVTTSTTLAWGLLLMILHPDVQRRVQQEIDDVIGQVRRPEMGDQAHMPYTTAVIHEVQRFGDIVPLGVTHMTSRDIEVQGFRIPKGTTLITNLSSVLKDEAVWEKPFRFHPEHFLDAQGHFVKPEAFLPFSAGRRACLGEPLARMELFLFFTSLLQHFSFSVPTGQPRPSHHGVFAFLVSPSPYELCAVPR
CYP2C9, sequence (P11712 whole entry): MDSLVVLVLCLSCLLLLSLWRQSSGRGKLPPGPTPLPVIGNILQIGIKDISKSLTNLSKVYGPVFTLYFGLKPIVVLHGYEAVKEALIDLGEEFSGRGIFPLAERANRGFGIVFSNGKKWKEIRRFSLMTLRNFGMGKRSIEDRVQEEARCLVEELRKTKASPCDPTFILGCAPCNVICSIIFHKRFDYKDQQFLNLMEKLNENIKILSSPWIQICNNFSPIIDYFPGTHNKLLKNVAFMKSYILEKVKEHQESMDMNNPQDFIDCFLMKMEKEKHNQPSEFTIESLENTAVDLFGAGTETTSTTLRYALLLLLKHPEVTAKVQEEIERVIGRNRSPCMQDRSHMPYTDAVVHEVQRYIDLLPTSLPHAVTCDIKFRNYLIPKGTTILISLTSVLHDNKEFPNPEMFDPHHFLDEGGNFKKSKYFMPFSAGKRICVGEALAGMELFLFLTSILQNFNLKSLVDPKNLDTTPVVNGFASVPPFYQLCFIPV
T2 sequence (P02769 25-607): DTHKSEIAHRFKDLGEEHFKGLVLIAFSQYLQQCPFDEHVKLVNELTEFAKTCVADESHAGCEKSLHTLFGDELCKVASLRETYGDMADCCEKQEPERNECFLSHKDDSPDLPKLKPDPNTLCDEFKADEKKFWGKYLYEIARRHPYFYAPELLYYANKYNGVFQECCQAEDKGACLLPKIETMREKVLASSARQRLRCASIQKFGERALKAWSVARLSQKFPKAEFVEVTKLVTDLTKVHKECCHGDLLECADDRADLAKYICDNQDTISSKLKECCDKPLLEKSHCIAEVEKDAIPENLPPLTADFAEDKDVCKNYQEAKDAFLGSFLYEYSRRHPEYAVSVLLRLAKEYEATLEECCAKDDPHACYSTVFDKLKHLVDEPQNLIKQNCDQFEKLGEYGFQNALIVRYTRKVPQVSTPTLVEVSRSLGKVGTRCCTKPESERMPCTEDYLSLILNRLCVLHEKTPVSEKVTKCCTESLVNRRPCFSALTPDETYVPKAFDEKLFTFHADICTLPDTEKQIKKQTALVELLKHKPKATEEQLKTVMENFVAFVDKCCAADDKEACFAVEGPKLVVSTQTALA

COc1cc(N[C@H](C)CCCN)c2nccc(C)c2c1Oc1ccc(Cl)c(Cl)c1 [NPC1161B]
Fraction unbound, 10% FCS in DMEM [1]: 0.043 ± 0.004

C[C@H]1[C@H](OC(=O)CCC(=O)O)O[C@@H]2O[C@@]3(C)CC[C@H]4[C@H](C)CC[C@@H]1[C@@]24OO3 [Artesunate]
fraction unbound at […], 1000 ng/mL ([2]; DMEM with 10% FCS): 0.72 ± 0.026

CCc1nc(N)nc(N)c1OCCCOc1ccccc1CCC(=O)O.Cl [P218]
Fraction unbound, 10% FCS in DMEM [1]: 0.684 ± 0.017

CCc1nc(N)nc(N)c1-c1ccc(Cl)cc1 [Pyrimethamine]
fraction unbound at […], 1000 ng/mL ([2]; DMEM with 10% FCS): 0.48 ± 0.034

C[C@H]1[C@@H](O)O[C@@H]2O[C@@]3(C)CC[C@H]4[C@H](C)CC[C@@H]1[C@@]24OO3 [Dihydroartemisinin]
half-life ([3]; in vivo, ref Table 10): approximately 1 h | CL/F [3]: 272 L/h | Food effect [3]: no | V/F [3]: 385 L

O=C(NCCN1CCCC1)c1cc(-c2ccc(CN3CCOCC3)cc2)nc2ccc(F)cc12 [M5717]
Fraction unbound, 10% FCS in DMEM [1]: 0.638 ± 0.065 | Solubility PBS7.4 (5–6 h) [4]: > 3000 µg/mL and > 6490 µM | Solubility FaSSGF (1 h) [4]: > 3000 µg/mL and > 6490 µM | Solubility FaSSIF-V2 (5–6 h) [4]: > 3000 µg/mL and > 6490 µM | Solubility FeSSIF-V2 (5–6 h) [4]: > 3000 µg/mL and > 6486 µM | Measured Log D7.4 [5]: 2.50 ^g

CC(C)(N)CNC(=O)C[C@H]1CC[C@]2(CC1)OO[C@]1(O2)C2CC3CC(C2)CC1C3 [OZ277, Arterolane]
half-life ([3]; in vivo, ref Table 10): ~3 h | CL/F [3]: 184 L/h | Food effect [3]: no | V/F [3]: 929 L | half-life [3]: 3 h

CS(=O)(=O)O.FC1CCN(CCOc2ccc(C3CCC4(CC3)OOC3(OO4)C4CC5CC(C4)CC3C5)cc2)CC1 (stereo not drawn) [TDD-E209]
IC50 [6]: > 20 µM | CYP1A2 % inhibition at max conc [6]: nmi | IC50 [7]: > 20 µM | CYP2C9 % inhibition at max conc ([7]; nmi = no measurable inhibition): nmi | HLM CLint [8]: 25.5^e µL/min/mg | CYP3A4 (midaz) % inhibition at max conc ([9]; CYP3A4 (midaz)): 33% | IC50 ([9]; CYP3A4 (midaz), read-out: CYP3A4 (midaz) IC50): > 20 µM | CYP3A4 (test) % inhibition at max conc ([9]; CYP3A4 (test)): 43% | IC50 [9, 14]: > 20 µM | IC50 [10]: > 20 µM | CYP2C19 % inhibition at max conc ([10]; nmi = no measurable inhibition): nmi | IC50 [11]: > 20 µM | CYP2D6 % inhibition at max conc ([11]; nmi = no measurable inhibition): nmi

CC(C)(C)NCc1cc(C(C)(C)C)cc(-c2cnc(C(F)(F)F)c(F)c2)c1O [JPC3210]
Fraction unbound, 10% FCS in DMEM [1]: 0.227 ± 0.012

COc1ncnc(NS(=O)(=O)c2ccc(N)cc2)c1OC [Sulfadoxine]
fraction unbound at […], 1000 ng/mL ([2]; DMEM with 10% FCS): 0.86 ± 0.044

CN(C)C[c-]1cccc1CNc1ccnc2cc(Cl)ccc12.[Fe+2].c1cc[cH-]c1 (stereo not drawn) [Ferroquine]
Fraction unbound, 10% FCS in DMEM [1]: 0.364 ± 0.026

COc1cc2[nH]c(C)c(-c3ccc(Oc4ccc(OC(F)(F)F)cc4)cc3)c(=O)c2cc1Cl [ELQ300]
Fraction unbound, 10% FCS in DMEM [1]: 0.001 ± 0.001

COc1cc(NC(C)CCCN)c2ncccc2c1 (stereo not drawn) [Primaquine]
fraction unbound at […], 1000 ng/mL [2]: 0.78 ± 0.025 | half-life ([3]; in vivo, ref Table 10): ~ 7 h | CL/F ([3]; apparent oral clearance): 28 L/h | V/F [3, 15]: 277 L | Food effect [3]: no | half-life [3]: 7 h

Cc1cc(Nc2ccc(C(F)(F)F)nc2)n2nc(C(C)(F)F)nc2n1 [DSM421]
IC50 [6]: > 20 µM | CYP1A2 % inhibition at max conc [6]: nmi | CYP2C9 % inhibition at max conc [7]: 16% | IC50 [7]: > 20 µM | Fraction unbound, 10% FCS in DMEM [1]: 0.615 ± 0.043 | Solubility FaSSGF (1 h) [4]: 116 µg/mL and 324 µM | Solubility FaSSIF-V2 (5–6 h) [4]: 92.7 µg/mL and 259 µM | Solubility FeSSIF-V2 (5–6 h) [4]: 119 µg/mL and 332 µM | Measured Log D7.4 [5]: 2.36 ^g | Fraction unbound, HLM [12]: 0.77 ± 0.065^f | CYP3A4 (test) % inhibition at max conc ([9]; CYP3A4 (test), nmi = no measurable inhibition): nmi | IC50 [9, 14]: > 20 µM | IC50 [10]: > 20 µM | CYP2C19 % inhibition at max conc ([10]; nmi = no measurable inhibition): nmi | CYP2D6 % inhibition at max conc [11]: 33% | IC50 [11]: > 20 µM

Clc1ccc2c(N3CCN(CCCN4CCN(c5ccnc6cc(Cl)ccc56)CC4)CC3)ccnc2c1 [Piperaquine]
fraction unbound at […], 1000 ng/mL ([2]; DMEM with 10% FCS): 0.092 ± 0.003

C[C@H]1c2cccc(O)c2C(=O)C2=C(O)[C@]3(O)C(=O)C(C(N)=O)=C(O)[C@@H](N(C)C)[C@@H]3[C@@H](O)[C@@H]21 [Doxycyclin]
fraction unbound at […], 1000 ng/mL ([2]; DMEM with 10% FCS): 0.44 ± 0.07

Cc1cc(Nc2ccc(S(F)(F)(F)(F)F)cc2)n2nc(C(C)(F)F)nc2n1 [DSM265]
IC50 [6]: > 20 µM | CYP1A2 % inhibition at max conc [6]: nmi | CYP2C9 % inhibition at max conc [7]: 25% | IC50 [7]: > 20 µM | fraction unbound at […], 1000 ng/mL ([2]; DMEM with 10% FCS): 0.366 ± 0.041 | Solubility FaSSIF-V2 (5–6 h) [4]: 5.12 µg/mL and 12.3 µM | HLM CLint ([8]; < 15% loss over 60 min): < 7^b,e µL/min/mg | Fraction unbound, Albumax [13]: 0.18 ± 0.0050^f | Fraction unbound, HLM [12]: 0.28 ± 0.0070^f | CYP3A4 (test) % inhibition at max conc ([9]; CYP3A4 (test)): 34% | IC50 [9, 14]: > 20 µM | CYP2C19 % inhibition at max conc [10]: 19% | IC50 [10]: > 20 µM | IC50 [11]: 7.1 µM | Ki [11]: 4.4 µM

COc1cc(C)c2c(Oc3cccc(C(F)(F)F)c3)c(OC)cc(NC(C)CCCN)c2n1 (stereo not drawn) [Tafenoquine]
fraction unbound at […], 1000 ng/mL ([2]; DMEM with 10% FCS): 0.038 ± 0.001 | CL/F ([3]; apparent oral clearance): 3.0 L/h | V/F [3, 15]: 1600 L | Food effect [3]: yes | half-life [3]: 360 h | half-life ([3]; ref Table 10): ~ 15 days

CC1(C)N=C(N)N=C(N)N1c1ccc(Cl)cc1 [Cycloguanil]
fraction unbound at […], 1000 ng/mL ([2]; DMEM with 10% FCS): 0.94 ± 0.064

CC1(C)c2nc(-c3ccc(F)cc3)c(Nc3ccc(F)cc3)n2CCN1C(=O)CN [KAF156]
fraction unbound at […], 1000 ng/mL ([2]; DMEM with 10% FCS): 0.477 ± 0.032

CS(=O)(=O)c1ccc(-c2cnc(N)c(-c3ccc(C(F)(F)F)nc3)c2)cc1 [MMV048]
fraction unbound at […], 1000 ng/mL ([2]; DMEM with 10% FCS): 0.653 ± 0.06
